Test results published in PubChem BioAssay AID2060490 (Molecular Pharmacology Branch, DTP, NCI, 2025).

System: 885512-296-R-J2-PDC complex spheroid viability
Test: Anticancer human tumor 885512-296-R-J2-PDC patient-derived breast carcinoma cell line growth inhibition [GQUAD]
Conditions: for IC50: curve of first compound; for viability, T/C: stronger effect = lower value
Outline: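 Viability of tumor cells grown as complex spheroids with endothelial and stromal cells, exposed to drug combinations. Top concentration at or near clinical Cmax (else 10 microM), diluted in half-log increments.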

[1] = second compound 0.0316 µM, first compound 0.0316 µM
[2] = second compound 0.0316 µM, first compound 0.1 µM
[3] = second compound 0.0316 µM, first compound 0.316 µM
[4] = second compound 0.0316 µM, first compound 1 µM
[5] = second compound 0.0316 µM, first compound 3.16 µM
[6] = second compound 0.0316 µM, first compound 10 µM
[7] = second compound 0.1 µM, first compound 0.0316 µM
[8] = second compound 0.1 µM, first compound 0.1 µM
[9] = second compound 0.1 µM, first compound 0.316 µM
[10] = second compound 0.1 µM, first compound 1 µM
[11] = second compound 0.1 µM, first compound 3.16 µM
[12] = second compound 0.1 µM, first compound 10 µM
[13] = second compound 0.316 µM, first compound 0.0316 µM
[14] = second compound 0.316 µM, first compound 0.1 µM
[15] = second compound 0.316 µM, first compound 0.316 µM
[16] = second compound 0.316 µM, first compound 1 µM
[17] = second compound 0.316 µM, first compound 3.16 µM
[18] = second compound 0.316 µM, first compound 10 µM
[19] = second compound 1 µM, first compound 0.0316 µM
[20] = second compound 1 µM, first compound 0.1 µM
[21] = second compound 1 µM, first compound 0.316 µM
[22] = second compound 1 µM, first compound 1 µM
[23] = second compound 1 µM, first compound 3.16 µM
[24] = second compound 1 µM, first compound 10 µM
[25] = second compound 3.16 µM, first compound 0.0316 µM
[26] = second compound 3.16 µM, first compound 0.1 µM
[27] = second compound 3.16 µM, first compound 0.316 µM
[28] = second compound 3.16 µM, first compound 1 µM
[29] = second compound 3.16 µM, first compound 3.16 µM
[30] = second compound 3.16 µM, first compound 10 µM
[31] = second compound 10 µM, first compound 0.0316 µM
[32] = second compound 10 µM, first compound 0.1 µM
[33] = second compound 10 µM, first compound 0.316 µM
[34] = second compound 10 µM, first compound 1 µM
[35] = second compound 10 µM, first compound 3.16 µM
[36] = second compound 10 µM, first compound 10 µM
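Also: spheroids exposed to the compounds for one week.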
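For viability, T/C in this document: percent of tumor spheroid viability relative to DMSO vehicle control wells.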

## C#Cc1c(F)ccc2cc(O)cc(-c3ncc4c(N5CC6CCC(C5)N6)nc(OCC56CCCN5CC(F)C6)nc4c3F)c12 (stereo unspecified) + Cc1cnc(CNC(=O)c2c(=O)c3ccc(N4CCCN(C)CC4)nc3n3c2sc2ccccc23)cn1
Second compound 0.0316 µM
  IC50: > 10000 nM
Second compound 0.1 µM
  IC50: > 10000 nM
Second compound 0.316 µM
  IC50: < 31.6 nM
Second compound 1 µM
  IC50: < 31.6 nM
Second compound 3.16 µM
  IC50: < 31.6 nM
Second compound 10 µM
  IC50: < 31.6 nM
[1]
  viability, T/C: 81.9%
[2]
  viability, T/C: 80.5%
[3]
  viability, T/C: 85.2%
[4]
  viability, T/C: 83.9%
[5]
  viability, T/C: 96.2%
[6]
  viability, T/C: 83.5%
[7]
  viability, T/C: 60.2%
[8]
  viability, T/C: 60.3%
[9]
  viability, T/C: 69.4%
[10]
  viability, T/C: 59.8%
[11]
  viability, T/C: 66.5%
[12]
  viability, T/C: 56.5%
[13]
  viability, T/C: 32.4%
[14]
  viability, T/C: 26.6%
[15]
  viability, T/C: 31.7%
[16]
  viability, T/C: 34.7%
[17]
  viability, T/C: 22.9%
[18]
  viability, T/C: 31.9%
[19]
  viability, T/C: 24.9%
[20]
  viability, T/C: 23.8%
[21]
  viability, T/C: 24.6%
[22]
  viability, T/C: 28.2%
[23]
  viability, T/C: 29.4%
[24]
  viability, T/C: 23.9%
[25]
  viability, T/C: 24.8%
[26]
  viability, T/C: 32.1%
[27]
  viability, T/C: 26.4%
[28]
  viability, T/C: 28.7%
[29]
  viability, T/C: 29.1%
[30]
  viability, T/C: 9.52%
[31]
  viability, T/C: 0.12%
[32]
  viability, T/C: 0.16%
[33]
  viability, T/C: 0.18%
[34]
  viability, T/C: 0.13%
[35]
  viability, T/C: 0.19%
[36]
  viability, T/C: 0.16%

## CC(=O)O[C@H]1C(=O)[C@@]2(C)[C@H]([C@H](OC(=O)c3ccccc3)[C@]3(O)C[C@H](OC(=O)[C@H](O)[C@@H](NC(=O)c4ccccc4)c4ccccc4)C(C)=C1C3(C)C)[C@]1(OC(C)=O)CO[C@@H]1C[C@@H]2O + Cc1cnc(CNC(=O)c2c(=O)c3ccc(N4CCCN(C)CC4)nc3n3c2sc2ccccc23)cn1
Second compound 0.0316 µM
  IC50: < 31.6 nM
Second compound 0.1 µM
  IC50: < 31.6 nM
Second compound 0.316 µM
  IC50: < 31.6 nM
Second compound 1 µM
  IC50: < 31.6 nM
Second compound 3.16 µM
  IC50: < 31.6 nM
Second compound 10 µM
  IC50: < 31.6 nM
[1]
  viability, T/C: 11.1%
[2]
  viability, T/C: 3.65%
[3]
  viability, T/C: 3.53%
[4]
  viability, T/C: 4.58%
[5]
  viability, T/C: 3.52%
[6]
  viability, T/C: 3.97%
[7]
  viability, T/C: 7.92%
[8]
  viability, T/C: 4.41%
[9]
  viability, T/C: 6.02%
[10]
  viability, T/C: 4.78%
[11]
  viability, T/C: 4.71%
[12]
  viability, T/C: 4.43%
[13]
  viability, T/C: 7.35%
[14]
  viability, T/C: 6.45%
[15]
  viability, T/C: 5.89%
[16]
  viability, T/C: 7.32%
[17]
  viability, T/C: 6.29%
[18]
  viability, T/C: 6.52%
[19]
  viability, T/C: 7.81%
[20]
  viability, T/C: 6.34%
[21]
  viability, T/C: 5.06%
[22]
  viability, T/C: 7.14%
[23]
  viability, T/C: 6.19%
[24]
  viability, T/C: 7.74%
[25]
  viability, T/C: 12.7%
[26]
  viability, T/C: 0.54%
[27]
  viability, T/C: 0.25%
[28]
  viability, T/C: 0.47%
[29]
  viability, T/C: 0.25%
[30]
  viability, T/C: 0.18%
[31]
  viability, T/C: 0.12%
[32]
  viability, T/C: 0.14%
[33]
  viability, T/C: 0.14%
[34]
  viability, T/C: 0.12%
[35]
  viability, T/C: 0.15%
[36]
  viability, T/C: 0.16%

## O=c1[nH]cc(F)c(=O)[nH]1 + Cc1cnc(CNC(=O)c2c(=O)c3ccc(N4CCCN(C)CC4)nc3n3c2sc2ccccc23)cn1
Second compound 0.0316 µM
  IC50: > 10000 nM
Second compound 0.1 µM
  IC50: > 10000 nM
Second compound 0.316 µM
  IC50: < 31.6 nM
Second compound 1 µM
  IC50: < 31.6 nM
Second compound 3.16 µM
  IC50: < 31.6 nM
Second compound 10 µM
  IC50: < 31.6 nM
[1]
  viability, T/C: 90.9%
[2]
  viability, T/C: 75.9%
[3]
  viability, T/C: 87.1%
[4]
  viability, T/C: 69.5%
[5]
  viability, T/C: 59.4%
[6]
  viability, T/C: 52.1%
[7]
  viability, T/C: 68.3%
[8]
  viability, T/C: 70.2%
[9]
  viability, T/C: 54.4%
[10]
  viability, T/C: 66.3%
[11]
  viability, T/C: 51.1%
[12]
  viability, T/C: 56.8%
[13]
  viability, T/C: 30%
[14]
  viability, T/C: 27.2%
[15]
  viability, T/C: 23.6%
[16]
  viability, T/C: 19.8%
[17]
  viability, T/C: 38%
[18]
  viability, T/C: 36.1%
[19]
  viability, T/C: 29.9%
[20]
  viability, T/C: 28.4%
[21]
  viability, T/C: 26.4%
[22]
  viability, T/C: 28%
[23]
  viability, T/C: 23.1%
[24]
  viability, T/C: 27.6%
[25]
  viability, T/C: 23.5%
[26]
  viability, T/C: 27.8%
[27]
  viability, T/C: 22.4%
[28]
  viability, T/C: 20.4%
[29]
  viability, T/C: 29.4%
[30]
  viability, T/C: 24.1%
[31]
  viability, T/C: 0.1%
[32]
  viability, T/C: 0.16%
[33]
  viability, T/C: 0.21%
[34]
  viability, T/C: 0.13%
[35]
  viability, T/C: 0.19%
[36]
  viability, T/C: 0.16%
